From patent US20260109707A1, “HETEROBIFUNCTIONAL COMPOUNDS AND METHODS OF TREATING DISEASE” (Halda Therapeutics OpCo. Inc., priority 2022, published 2026)
Read-outs that look alike come from different tables or passages of the source.

Key:
T47D cells = experiment: Cellular growth inhibition assay for T47D cells (CellTiter-Glo, 72 hours); assay type: cell-based, human; conditions: 72 hours treatment
Outline: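 Growth inhibition as GI50, fitted with four parameters to CellTiter-Glo luminescence after 72 h of compound exposure (0.5% DMSO). Cells were T47D, grown in insulin-supplemented (0.2 units/mL) DMEM with 10% FBS and treated one day post-seeding.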

[1] = test system: T-Rex 293 cell line SC3 cells having increased expression of androgen receptor protein due to exposure to doxycycline; experiment: Cellular growth inhibition assay, T-Rex 293 SC3 cells with doxycycline (CellTiter-Glo, 72 hours); assay type: cell-based; conditions: T-Rex 293 SC3 cells with increased androgen receptor expression due to doxycycline (10 ng/mL)
Outline: (§1)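 Doxycycline (10 ng/mL) was either included or omitted to toggle wild-type androgen receptor expression in SC3 cells, a T-Rex 293 clone, grown in stripped-serum, phenol red-free medium. After 72 hours with compound, viable cells were quantified by CellTiter-Glo 2.0.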

VCaP cells = experiment: Cellular growth inhibition assay for VCaP cells (CellTiter-Glo, 72 hours); assay type: cell-based, human
Outline: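 Luminescent viability signal after 72 h of compound exposure gave GI50 values by four-parameter nonlinear regression. Compounds were added in 0.5% DMSO to cells plated 24 h earlier at 5000/well in DMEM containing 10% FBS.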

[2] = test system: T-Rex 293 cell line SC3 cells lacking increased expression of androgen receptor protein; experiment: Cellular growth inhibition assay, T-Rex 293 SC3 cells without doxycycline (CellTiter-Glo, 72 hours); assay type: cell-based; conditions: T-Rex 293 cell line SC3 cells not exposed to doxycycline (lacking increased androgen receptor expression)
Outline: as §1

| SMILES | GI50 (T47D cells; Homo sapiens, T47D, 72 h) | GI50 ([1]; 72 h) | GI50 (VCaP cells; Homo sapiens, VCaP, 72 h) | GI50 ([2]; 72 h) | GI50 (T47D cells) | GI50 [1] | GI50 (VCaP cells) | GI50 [2] |
| --- | --- | --- | --- | --- | --- | --- | --- | --- |
| Cc1sc2c(c1C)C(c1ccc(N3CC(C4CC5(C4)CN(c4ccc(C(=O)N[C@H]6CC[C@H](Oc7ccc(C#N)c(Cl)c7)CC6)nn4)C5)C3)cc1)=N[C@@H](Cc1ncco1)c1nnc(C)n1-2 [I-387] | < 500 nM | < 500 nM | < 500 nM | < 500 nM |  |  |  |  |
| Cc1sc2c(c1C)C(c1ccc(N3CCC4(CCN(c5ccc(C(=O)N[C@H]6CC[C@H](Oc7ccc(C#N)c(Cl)c7)CC6)nn5)CC4)C3)cc1)=N[C@@H](Cc1ncco1)c1nnc(C)n1-2 [I-388] | < 500 nM | < 500 nM | < 500 nM | < 500 nM |  |  |  |  |
| [2H]C([2H])(c1ccc(C2=N[C@@H](Cc3ncco3)c3nnc(C)n3-c3sc(C)c(C)c32)cc1)N1CCC2(CCCN(c3ccc(C(=O)N[C@H]4CC[C@H](Oc5ccc(C#N)c(Cl)c5)CC4)nn3)C2)C1 (some centres unmarked) [I-389] | 500 to 1500 nM | < 500 nM | < 500 nM | 1500 to 3000 nM |  |  |  |  |
| [2H]C([2H])(c1ccc(C2=N[C@@H](Cc3ncco3)c3nnc(C)n3-c3sc(C)c(C)c32)cc1)N1CC2(CCCN(c3ccc(C(=O)N[C@H]4CC[C@H](Oc5ccc(C#N)c(Cl)c5)CC4)nn3)C2)C1 [I-390] | 500 to 1500 nM | < 500 nM | < 500 nM | 500 to 1500 nM |  |  |  |  |
| Cc1sc2c(c1C)C(c1ccc(C(C)(C)N3CC4(CCN(c5ccc(C(=O)N[C@H]6CC[C@H](Oc7ccc(C#N)c(Cl)c7)CC6)nn5)CC4)C3)cc1)=N[C@@H](Cc1ncco1)c1nnc(C)n1-2 [I-391] | > 3000 nM | < 500 nM | > 3000 nM | > 3000 nM |  |  |  |  |
| Cc1sc2c(c1C)C(c1ccc(C(C)(C)N3CC4(CCCN(c5ccc(C(=O)N[C@H]6CC[C@H](Oc7ccc(C#N)c(Cl)c7)CC6)nn5)C4)C3)cc1)=N[C@@H](Cc1ncco1)c1nnc(C)n1-2 [I-392] | > 3000 nM | < 500 nM | 500 to 1500 nM | > 3000 nM |  |  |  |  |
| Cc1sc2c(c1C)C(c1ccc(CC(C)(C)N3CC4(CCCN(c5ccc(C(=O)N[C@H]6CC[C@H](Oc7ccc(C#N)c(Cl)c7)CC6)nn5)C4)C3)cc1)=N[C@@H](Cc1ncco1)c1nnc(C)n1-2 [I-393] | < 500 nM | < 500 nM | < 500 nM | 1500 to 3000 nM |  |  |  |  |
| CC1=NN=C2C1c1sc(C)c(C)c1C(c1ccc(C#CC3CCN(c4ccc(C(=O)N[C@H]5CC[C@H](Oc6ccc(C#N)c(Cl)c6)CC5)nn4)CC3)cc1)=N[C@H]2Cc1ncco1 (some centres unmarked) [I-394] | < 500 nM | < 500 nM | < 500 nM | < 500 nM |  |  |  |  |
| Cc1sc2c(c1C)C(c1ccc(CCC[C@H]3CCCN(c4ccc(C(=O)N[C@H]5CC[C@H](OC6CCC(C#N)C(Cl)C6)CC5)nn4)CC3)cc1)=N[C@@H](Cc1ncco1)c1nnc(C)n1-2 (some centres unmarked) [I-395] | < 500 nM | < 500 nM | < 500 nM | < 500 nM |  |  |  |  |
| Cc1sc2c(c1C)C(c1ccc(CCCC3CCCN(c4ccc(C(=O)N[C@H]5CC[C@H](OC6CCC(C#N)C(Cl)C6)CC5)nn4)CC3)cc1)=N[C@@H](Cc1ncco1)c1nnc(C)n1-2 (some centres unmarked) [I-396] | < 500 nM | < 500 nM | < 500 nM | < 500 nM |  |  |  |  |
| Cc1sc2c(c1C)C(c1ccc(N3CCC4(CC3)CCN(c3ccc(C(=O)NC5CCC(Oc6ccc(C#N)c(Cl)c6)CC5)nn3)CC4)cc1)=N[C@@H](Cc1ncco1)c1nnc(C)n1-2 (some centres unmarked) [I-397] | < 500 nM | < 500 nM | < 500 nM | < 500 nM |  |  |  |  |
| Cc1sc2c(c1C)C(c1ccc(N3CCC4(CCCN(c5ccc(C(=O)N[C@H]6CC[C@H](Oc7ccc(C#N)c(Cl)c7)CC6)nn5)C4)CC3)cc1)=NC1(CC1)c1nnc(C)n1-2 [I-398] | > 3000 nM | < 500 nM | 1500 to 3000 nM | > 3000 nM |  |  |  |  |
| Cc1sc2c(c1C)C(c1ccc(N3CCC4(CC3)CCN(c3ccc(C(=O)N[C@H]5CC[C@H](Oc6ccc(C#N)c(Cl)c6)CC5)nn3)C4)cc1)=NC1(CC1)c1nnc(C)n1-2 [I-399] | 1500 to 3000 nM | < 500 nM | < 500 nM | 500 to 1500 nM |  |  |  |  |
| Cc1sc2c(c1C)C(c1ccc(N3CCC4(CC3)CCN(c3ccc(C(=O)N[C@H]5CC[C@H](Oc6ccc(C#N)c(Cl)c6)CC5)nn3)C4)cc1)=NCc1nnc(C)n1-2 [I-400] | > 3000 nM | < 500 nM | 1500 to 3000 nM | 500 to 1500 nM |  |  |  |  |
| Cc1sc2c(c1C)C(c1ccc(CCC3CCC4CN(c5ccc(C(=O)N[C@H]6CC[C@H](Oc7ccc(C#N)c(Cl)c7)CC6)nn5)CCN4C3)cc1)=NC(Cc1ncco1)c1nnc(C)n1-2 (some centres unmarked) [I-401] |  |  |  |  | > 3000 nM | > 3000 nM | > 3000 nM | > 3000 nM |
| Cc1sc2c(c1C)C(c1ccc(CCC3CCC4CN(c5ccc(C(=O)N[C@H]6CC[C@H](Oc7ccc(C#N)c(Cl)c7)CC6)nn5)CCN4C3)cc1)=NC(Cc1ncco1)c1nnc(C)n1-2 (some centres unmarked) [I-402] |  |  |  |  | > 3000 nM | < 500 nM | > 3000 nM | > 3000 nM |
| Cc1sc2c(c1C)C(c1ccc(CCC3CCC4CN(c5ccc(C(=O)N[C@H]6CC[C@H](Oc7ccc(C#N)c(Cl)c7)CC6)nn5)CCN4C3)cc1)=NC(Cc1ncco1)c1nnc(C)n1-2 (some centres unmarked) [I-403] |  |  |  |  | < 500 nM | < 500 nM | < 500 nM | < 500 nM |
| Cc1sc2c(c1C)C(c1ccc(CCC3CCC4CN(c5ccc(C(=O)N[C@H]6CC[C@H](Oc7ccc(C#N)c(Cl)c7)CC6)nn5)CCN4C3)cc1)=NC(Cc1ncco1)c1nnc(C)n1-2 (some centres unmarked) [I-404] |  |  |  |  | < 500 nM | < 500 nM | < 500 nM | < 500 nM |
| Cc1sc2c(c1C)C(c1ccc(OC[C@H]3CC[C@]4(C3)CN(c3ccc(C(=O)N[C@H]5CC[C@H](Oc6ccc(C#N)c(Cl)c6)CC5)nn3)CCO4)cn1)=N[C@@H](Cc1ncco1)c1nnc(C)n1-2 [I-405] | < 500 nM | < 500 nM | < 500 nM | < 500 nM |  |  |  |  |
| Cc1sc2c(c1C)C(c1ccc(OC[C@H]3CC[C@@]4(CCCN(c5ccc(C(=O)N[C@H]6CC[C@H](Oc7ccc(C#N)c(Cl)c7)CC6)nn5)C4)C3)cn1)=N[C@@H](Cc1ncco1)c1nnc(C)n1-2 [I-406] | < 500 nM | < 500 nM | < 500 nM | < 500 nM |  |  |  |  |
| CC1=NN=C2C1c1sc(C)c(C)c1C(c1ccc(C#CC3C4CN(c5ccc(C(=O)N[C@H]6CC[C@H](Oc7ccc(C#N)c(Cl)c7)CC6)nn5)CC34)cc1)=N[C@H]2Cc1ncco1 (some centres unmarked) [I-407] | > 3000 nM | > 3000 nM | < 500 nM | > 3000 nM |  |  |  |  |
| CC1=NN=C2C1c1sc(C)c(C)c1C(c1ccc(C#CC3C4CN(c5ccc(C(=O)N[C@H]6CC[C@H](Oc7ccc(C#N)c(Cl)c7)CC6)nn5)CC34)cc1)=N[C@@H]2Cc1ncco1 (some centres unmarked) [I-408] | < 500 nM | < 500 nM | < 500 nM | < 500 nM |  |  |  |  |
| CC1=NN=C2C1c1sc(C)c(C)c1C(c1ccc(C3CCC4(CC3)CCN(c3ccc(C(=O)N[C@H]5CC[C@H](Oc6ccc(C#N)c(Cl)c6)CC5)nn3)CC4)cc1)=N[C@H]2Cc1ncco1 (some centres unmarked) [I-409] | > 3000 nM | > 3000 nM | > 3000 nM | > 3000 nM |  |  |  |  |
| CC1=NN=C2C1c1sc(C)c(C)c1C(c1ccc(C3CCC4(CC3)CCN(c3ccc(C(=O)N[C@H]5CC[C@H](Oc6ccc(C#N)c(Cl)c6)CC5)nn3)CC4)cc1)=N[C@@H]2Cc1ncco1 (some centres unmarked) [I-410] | < 500 nM | < 500 nM | < 500 nM | < 500 nM |  |  |  |  |
| Cc1sc2c(c1C)C(c1ccc(CCC[C@@H]3CCCN(c4ccc(C(=O)N[C@H]5CC[C@H](Oc6ccc(C#N)c(Cl)c6)CC5)nn4)CC3)cc1)=N[C@@H](Cc1ncco1)c1nnc(C)n1-2 [I-411] | < 500 nM | < 500 nM | < 500 nM | < 500 nM |  |  |  |  |
| Cc1sc2c(c1C)C(c1ccc(-c3ccc(C4CC5(C4)CN(c4ccc(C(=O)N[C@H]6CC[C@H](Oc7ccc(C#N)c(Cl)c7)CC6)nn4)C5)cc3)cc1)=N[C@@H](Cc1ncco1)c1nnc(C)n1-2 [I-412] | < 500 nM | < 500 nM | 500 to 1500 nM | < 500 nM |  |  |  |  |
